Laboratory results published in patent publication US20230172878A1, “COMPOSITIONS AND METHODS FOR TREATING CYTOKINE STORMS” (priority 2020, published 2023).

Tests used:
[1] = test system: mice; settings: cited from earlier work
[2] = test system: mice; settings: 10× higher doses than the human equivalent dose proposed for clinical trials; cited from earlier work
[3] = test system: dogs; settings: 10× higher doses than the human equivalent dose proposed for clinical trials; cited from earlier work
[4] = test system: rats; settings: 10× higher doses than the human equivalent dose proposed for clinical trials; cited from earlier work
[5] = test system: PBMCs; experiment: Cytokine production by morpholinofructose-stimulated PBMCs from two donors; format: cell-based, human
Procedure: For FIGS. 2 through 7, cells from two donors were used, each in a separate independent study. Cytokines secreted in the media by the cells were measured at 2, 4, 6, 24 and 48 hours.
In the following examples cells were stimulated known cytokine stimulants, either lipopolysaccharide (“LPS”) or morpholino fructose. […] Varying levels of meglumine, or a salt thereof were then administered to the stimulated cells and the resulting cytokine levels measured.
Peripheral blood mononuclear cells (“PBMC”s) from two donors were used to measure cytokine levels in response to various inputs. For each donor, one group of PBMCs were untreated. One group was allowed to remain in cell culture. A different group was treated with 40 mM meglumine. Another group was treated with morpholinofructose at 40 mM concentration. Three remaining groups were treated with morpholinofructose at 40 mM concentration and meglumine at concentration of 20 mM, 40 mM, and 80 mM. The groups were allowed to incubate for up to 50 hours. Cytokines secreted in the media by the cells were measured at 2, 4, 6, 24 and 48 hours The percentage of cells positive for IL-6 was determined by flow cytometry.
The same protocol was used to measure the addition of meglumine to reduce the levels of TNF-α (FIGS. 3A and 3B), MIP-1α (FIGS. 4A and 4B), MCP-1(FIGS. 5A and 5B), and MCP-1 ((FIGS. 6A and 6B).

[6] = test system: THP-1 cells; experiment: LPS-induced cytokine secretion by THP-1 cells; format: cell-based, human; settings: LPS 25 ng/ml, 24 hours
Procedure: THP-1 cells (a human monocytic cell line derived from an acute monocytic leukemia patient) were cultured to 80% confluence. The THP-1 cells were then treated with LPS at 25 ng/ml to induce cytokine secretion. Cells were treated with either various concentration of meglumine. Tissue culture media was harvested at 24 hours and the levels of cytokines were determined.

[7] = test system: PBMCs; experiment: LPS-stimulated cytokine-positive PBMCs, flow cytometry; format: cell-based, human; settings: 4 hours
Procedure: Lipopolysaccharide (LPS) at […] concentration was used as a positive control for cytokine production in PBMCs. Meglumine was added at 40 mM and the cells allowed to incubate for 4 hours before sorting. […] (p<0.05 vs unstimulated and p<0.05 vs LPS). FIG. 8. The same protocol was sued to measure IL-1α production. […] FIG. 9.

## COc1cc2nc(N3CCN(C(=O)c4ccco4)CC3)nc(N)c2cc1OC [Prazosin, prazosin]
[1]
  catecholamines and cytokine responses: reduces
[1]; following various hyper-inflammatory stimuli
  survival: markedly increased survival

## CNC[C@H](O)[C@@H](O)[C@H](O)[C@H](O)CO.Cl [meglumine HCl]
[2]
  safety: safe
[3]
  safety: safe
[4]
  safety: safe

## CNC[C@H](O)[C@@H](O)[C@H](O)[C@H](O)CO [meglumine, (2R,3R,4R,5S)-6-(Methylamino)hexane-1,2,3,4,5-pentol]
[5]; 40 mM morpholinofructose plus meglumine 20, 40, 80 mM, measured at 2, 4, 6, 24 and 48 hours
  IL-6 levels in the PBMCs: reduced the IL-6 levels
[5]; 40 mM morpholinofructose plus various concentrations of meglumine, FIGS. 3A, 3B
  TNF-α production: decreased
[5]; 40 mM morpholinofructose plus various concentrations of meglumine, FIGS. 4A, 4B
  MIP 1α production: decreased
[5]; 40 mM morpholinofructose plus various concentrations of meglumine, FIGS. 5A, 5B
  MCP 1 production: decreased
[5]; 40 mM morpholinofructose plus various concentrations of meglumine, FIGS. 6A, 6B
  IL-10 production: decreased
[6]
  lowest concentration at which cytokine reduction was exhibited: 10 mm
[6]; meglumine at high concentrations, FIG. 11
  secretion of IL-8: ability to interfere with the secretion
[6]; meglumine at high concentrations, FIG. 13
  secretion of MIP-1α: ability to interfere with the secretion
[6]; meglumine at high concentrations, FIG. 14
  secretion of MIP-1β: ability to interfere with the secretion
[6]; meglumine at high concentrations, FIG. 15
  secretion of VEGF: ability to interfere with the secretion
[7]; LPS 40 mM, meglumine 40 mM, p<0.05 vs unstimulated and vs LPS, FIG. 8
  LPS-stimulated increase in the percentage of IL-6 positive PBMCs: significantly reduced
[7]; combination of LPS and meglumine 40 mM, FIG. 9
  percentage of PBMCs expressing IL-1α: significantly increased

## O=C(CN1CCOCC1)[C@@H](O)[C@H](O)[C@H](O)CO [morpholinofructose, reference compound]
[5]; human PBMCs incubated with 40 mM morpholinofructose, FIG. 7
  IL-6 production versus control cells: significantly more IL-6 than control cells
